This note sets out measurements from patent publication US7829665B2 (priority 2005, dated 2010).

The conditions of series [1]: from C=CCCCCC[C@H](NC(=O)OC(C)(C)C)C(=O)N1CCC[C@H]1C(=O)N[C@]1(C(=O)OCC)C[C@H]1C=C; rcm bond; Hoveyda 1st generation catalyst; 1,2-dichloroethane; 10.0 mM; 50.0 °C; 16.0 h.
Series [2] concerns HCV sub-genomic replicon in GS4.3 cells (HuH-7 hepatoma cells). In words: Quantitation by ELISA of Neomycin phosphotransferase II (NPTII) in the HCV sub-genomic replicon, GS4.3. Particulars: Hepatitis C virus, Huh-7; GS4.3 cells, 72 h incubation, NPTII ELISA; read-out: Replicon EC50. Type of series: cell-based, hepatitis C virus. The method in brief:
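Replicon-bearing HuH-7 (GS4.3) cells were exposed to compounds for 72 h in G418-free medium, top final concentration 10 μM, 1% DMSO. Lysates went to an NPTII ELISA read at 450 nm. Signal was normalised to DMSO-treated wells and EC50 was derived by four-parameter curve fitting.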

The target of series [3] is T1, full-length NS3/NS4A-2 (HCV NS3 protease) (Hepatitis C virus genotype 1a, UniProt P27958).
T1 construct: Recombinant E. coli or Baculovirus full-length NS3 was diluted to 3.33 μM with assay buffer; made in house; host or cells: E. coli or baculovirus (BV) expression system
T1 sequence (P27958 1027-1657): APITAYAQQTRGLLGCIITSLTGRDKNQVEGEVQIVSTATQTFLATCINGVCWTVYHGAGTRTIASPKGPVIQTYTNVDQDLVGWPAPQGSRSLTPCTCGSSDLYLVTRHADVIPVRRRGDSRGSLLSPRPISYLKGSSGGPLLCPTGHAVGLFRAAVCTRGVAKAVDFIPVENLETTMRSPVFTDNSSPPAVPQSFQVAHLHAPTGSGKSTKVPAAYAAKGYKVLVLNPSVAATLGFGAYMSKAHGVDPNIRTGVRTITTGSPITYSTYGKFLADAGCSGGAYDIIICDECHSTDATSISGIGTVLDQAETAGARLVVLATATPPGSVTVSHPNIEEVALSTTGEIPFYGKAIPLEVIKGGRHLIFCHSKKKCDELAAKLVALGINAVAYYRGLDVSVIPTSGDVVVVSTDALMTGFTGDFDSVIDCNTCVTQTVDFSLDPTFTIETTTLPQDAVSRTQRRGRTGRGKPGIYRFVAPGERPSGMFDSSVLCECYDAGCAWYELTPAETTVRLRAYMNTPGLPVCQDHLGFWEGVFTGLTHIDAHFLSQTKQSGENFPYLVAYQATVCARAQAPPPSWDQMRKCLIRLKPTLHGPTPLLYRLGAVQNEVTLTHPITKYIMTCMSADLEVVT
In words: NS3-NS4 protease assay / NS3 inhibition assay (RETS1 substrate, fluorescence kinetic read). Type of series: biochemical. Particulars: recombinant E. coli or Baculovirus full-length NS3 with NS4A-2; read-out: NS3-NS4 IC50. The gist of the method: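 Ki values come from IC50 fits corrected via Ki=IC50/(1+[S]/Km), with Km 2.03 μM for E. coli and 1.74 μM for baculovirus full-length NS3. Enzyme (2 or 3 nM NS3, respectively, complexed with NS4A-2) sat with compound, top concentration 50 microM, for 10 min at room temperature. Cleavage of RETS1 (8 μM working solution) was then followed by fluorescence (335/495 nm) over 30 min.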

SMILES strings stand for the structures.

In series [1], `CCOC(=O)[C@@]12C[C@H]1C=CCCCCC[C@H](NC(=O)OC(C)(C)C)C(=O)N1CCC[C@H]1C(=O)N2` gave a ring closure, yield of all isomers of 76%.

For orientation: EC50 means the concentration that produces a half-maximal response. The term IC50 denotes the midpoint of a concentration-inhibition curve. `CC(C)(O)C(=O)N[C@H]1CCCCC/C=C\[C@@H]2C[C@@]2(C(=O)NS(=O)(=O)C2CC2)NC(=O)[C@@H]2C[C@@H](OC(=O)N3Cc4cccc(F)c4C3)CN2C1=O` [Compound 246]: the EC50 in series [2] is below 1000 nM. Besides, in series [3], the IC50 was below 100 nM.

On to `O=C1N[C@]2(C(=O)NS(=O)(=O)C3CC3)C[C@H]2/C=C\CCCCC[C@H](NCc2cc(F)cc(F)c2)C(=O)N2C[C@H](OC(=O)N3Cc4cccc(F)c4C3)C[C@@H]12` [Compound 903], for which the EC50 in series [2] is below 100 nM. In series [3], the IC50 is below 100 nM.

As for `CC(C)(C)OC(=O)N[C@H]1CCCCC/C=C\[C@@H]2C[C@@]2(C(=O)NS(=O)(=O)c2ccc(Cl)s2)NC(=O)[C@@H]2C[C@@H](OC(=O)N3Cc4cccc(Cl)c4C3)CN2C1=O` [Compound 164], the EC50 in series [2] was below 100 nM. Also, in series [3], the IC50 is below 100 nM.

Turning to `CC(=O)N[C@H](C(=O)N[C@H]1CCCCC/C=C\[C@@H]2C[C@@]2(C(=O)NS(=O)(=O)C2CC2)NC(=O)[C@@H]2C[C@@H](OC(=O)N3Cc4cccc(Cl)c4C3)CN2C1=O)C1CCCCC1` [Compound 262], the concentration for a half-maximal effect (EC50) in series [2] was below 1000 nM. In series [3], the IC50 is below 100 nM.

Turning to `N#CNC(=O)[C@@]12C[C@H]1/C=C\CCCCC[C@H](NC(=O)C1CC1)C(=O)N1C[C@H](OC(=O)N3Cc4cccc(F)c4C3)CC1C(=O)N2` (stereo partly shown) [Compound 638], in series [2], the EC50 was above 10000 nM. In addition, in series [3], the IC50 is below 1000 nM.

`O=C1N[C@]2(C(=O)NS(=O)(=O)C3CC3)C[C@H]2/C=C\CCCCC[C@H](NC2CCC2)C(=O)N2C[C@H](OC(=O)N3Cc4cccc(F)c4C3)C[C@@H]12` [Compound 907]: the EC50 in series [2] is below 1000 nM. Besides, the IC50 in series [3] was below 100 nM.

Take `C[C@H](NC(=O)O[C@@H]1C[C@H]2C(=O)N[C@]3(C(=O)NS(=O)(=O)C4CC4)C[C@H]3/C=C\CCCCC[C@H](NC(=O)OC(C)(C)C)C(=O)N2C1)c1ccc(F)cn1` [Compound 149]: the EC50 in series [2] is above 10000 nM. Moreover, the IC50 in series [3] is below 100 nM.

Take `CC(C)(C)OC(=O)N[C@H]1CCC(F)(F)CC/C=C\[C@@H]2C[C@@]2(C(=O)O)NC(=O)[C@@H]2C[C@@H](OC(=O)N3Cc4ccccc4C3)CN2C1=O` [Compound 1007]: the EC50 in series [2] was below 10000 nM. The IC50 in series [3] was below 100 nM.

Take `O=C(N[C@H]1CCCCC/C=C\[C@@H]2C[C@@]2(C(=O)NS(=O)(=O)C2CC2)NC(=O)[C@@H]2C[C@@H](OC(=O)N3Cc4ccc(OCCN5CCOCC5)cc4C3)CN2C1=O)OC1CCCC1` [Compound 132]: the EC50 in series [2] was below 100 nM. For the same compound, in series [3], the IC50 was below 100 nM.

For `CN(C)CCOc1ccc2c(c1)CN(C(=O)O[C@@H]1C[C@H]3C(=O)N[C@]4(C(=O)O)C[C@H]4/C=C\CCCCC[C@H](NC(=O)OC4CCCC4)C(=O)N3C1)C2` [Compound 133], the EC50 in series [2] was below 10000 nM. Also, in series [3], the IC50 was below 100 nM.

With `CC(C)(C)OCC(=O)N[C@H]1CCCCC/C=C\[C@@H]2C[C@@]2(C(=O)NS(=O)(=O)C2CC2)NC(=O)[C@@H]2C[C@@H](OC(=O)N3Cc4cccc(Cl)c4C3)CN2C1=O` [Compound 266], the EC50 in series [2] is below 100 nM. Further, in series [3], the IC50 was below 100 nM.

`Cc1ccc(CN[C@H]2CCCCC/C=C\[C@@H]3C[C@@]3(C(=O)NC#N)NC(=O)C3C[C@@H](OC(=O)N4Cc5cccc(F)c5C4)CN3C2=O)o1` (stereo partly shown) [Compound 643]: the EC50 in series [2] was above 10000 nM. The IC50 in series [3] was below 1000 nM.

Take `C[C@H](NC(=O)[C@@]12C[C@H]1/C=C\CCCCC[C@H](NC(=O)OC(C)(C)C)C(=O)N1C[C@H](OC(=O)N3Cc4cccc(F)c4C3)C[C@H]1C(=O)N2)c1ccc(F)cn1` [Compound 628]: the EC50 in series [2] was below 1000 nM. Also, the IC50 in series [3] was below 1000 nM.

With `CCCC1(S(=O)(=O)NC(=O)[C@@]23C[C@H]2/C=C\CCCCC[C@H](NC(=O)OC(C)(C)C)C(=O)N2C[C@H](OC(=O)N4Cc5ccccc5C4)C[C@H]2C(=O)N3)CC1` [Compound 104], in series [2], the EC50 is below 100 nM. For the same compound, the IC50 in series [3] is below 100 nM.

In the case of `CC(C)(C)OC(=O)N[C@H]1CCCC(F)(F)C/C=C\[C@@H]2C[C@@]2(C(=O)NS(=O)(=O)C2CC2)NC(=O)[C@@H]2C[C@@H](OC(=O)N3Cc4cccc(F)c4C3)CN2C1=O` [Compound 1008, (2R,6S,13aS,14aR,16aS,Z)-6-(tert-butoxycarbonylamino)-14a-(cyclopropylsulfonylcarbamoyl)-9,9-difluoro-5,16-dioxo-1,2,3,5,6,7,8,9,10,11,13a,14,14a,15,16,16a-hexadecahydrocyclopropa(e)prrolo[1,2-a][1,4]diazacyclopentadecine 2-yl 4-fluoroisoindoline-2-carboxylate], in series [2], the EC50 is below 100 nM. The IC50 in series [3] was below 100 nM.

For the compound `CC(C)(C)OC(=O)N[C@H]1CCCCC/C=C\[C@@H]2C[C@@]2(C(=O)NS(=O)(=O)N2CCOCC2)NC(=O)[C@@H]2C[C@@H](OC(=O)N3Cc4cccc(Cl)c4C3)CN2C1=O` [Compound 207], the EC50 in series [2] is below 100 nM. Besides, the IC50 in series [3] was below 100 nM.

Turning to `CC(C)(C)NC(=S)N[C@H]1CCCCC/C=C\[C@@H]2C[C@@]2(C(=O)NS(=O)(=O)C2CC2)NC(=O)[C@@H]2C[C@@H](OC(=O)N3Cc4cccc(F)c4C3)CN2C1=O` [Compound 239], in series [2], the EC50 is below 100 nM. The IC50 in series [3] was below 100 nM.

For the compound `CC[C@@H]1C[C@H]2C(=O)N[C@]3(C(=O)NS(=O)(=O)C4CC4)C[C@H]3/C=C\CCCCC[C@H](NC(=O)C3CC3)C(=O)N2C1` [Compound 318], the EC50 in series [2] was above 10000 nM. In addition, the IC50 in series [3] is below 1000 nM.
